According to PubChem BioAssay (NCI):
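A five-concentration, 48-hour dose response in 96-well plates underlies each endpoint, interpolated linearly between surrounding concentrations. GI50: concentration for 50% inhibition of growth. TGI is the concentration that stops growth completely.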

These molecules were tested on EKVX NSCLC (assay: NCI tumour cell line growth inhibition, 48 h).
With `CC1(C)C(=O)/C(=C\c2cccnc2)C[C@]2(C)[C@H]3CC[C@@H]4[C@H]5[C@H](C(=O)/C=C/c6cccnc6)CC[C@]5(C(=O)O)CC[C@@]4(C)[C@]3(C)CC[C@@H]12` the GI50 was 2.11 µM and the TGI was 4.92 µM. Work on `COc1cc2ncnc(-n3ncc4cc(NC(=O)Nc5ccccc5)ccc43)c2cc1OC` yielded a GI50 of 1.59 µM and a TGI of 7.3 µM. `Cn1cc(C2(C)CC(C)(C)c3c2n(C)c2ccccc32)c2ccccc21` (centres undefined) was tested, and the TGI was over 100 µM. `COc1ccc(C(=O)c2cc(OC)c(OC)c(OC)c2)cc1/C=C/C(=O)c1ccc(F)cc1` was tested, and the GI50 was 11.1 µM and the TGI was 31.4 µM. With `COC(=O)C(Cc1nc2ccccc2[nH]c1=O)C(NO)C(=O)Nc1c(Cl)cc([N+](=O)[O-])cc1Cl` (centres undefined) the TGI was over 100 µM. `COC(=O)C(CC(=O)Nc1ccc(C)cc1)C(=O)C(=O)Nc1c(C(C)C)cccc1C(C)C` (centres undefined) gave a TGI of over 100 µM. Molecule `OCC1OC(n2cnc3c2NC=NC[C@H]3O)C(Cl)C1O` (some centres undefined) has a TGI of over 100 µM. `COc1ccc(C2=C(Cl)c3cc(OC)c(OC)cc3C2Cl)cc1` (centres undefined) showed a TGI of 66.5 µM. Work on `O=C(/C=C/c1ccc(Cl)c(Cl)c1)c1ccc2ccccc2c1` yielded a TGI of over 100 µM. For `COc1ccc(-c2[nH]c3ccc(OC)cc3c2/C=C(\C#N)S(=O)(=O)c2ccccc2)cc1`, the GI50 was 3.21 µM and the TGI was over 100 µM. For `O=c1cc(NCC(O)CN2CCCC2)n(Cc2ccccc2)c(=O)n1Cc1ccccc1` (centres undefined), the GI50 was over 100 µM and the TGI was over 100 µM. Molecule `C/C(=N\Nc1ccc(Cl)cn1)c1ccc2ccccc2n1` has a GI50 of 2.6 µM and a TGI of over 100 µM. Molecule `CC1=C(/C=C/Cl)CC(Cl)C(C)(Cl)C1` (centres undefined) has a TGI of over 100 µM. `COc1c2c(cc3c1OCO3)[C@]13C=C[C@H](OC)C[C@H]1N(C2)CC3O` (some centres undefined) showed a TGI of over 100 µM. `Cc1[nH]c(=O)nc2[nH][nH]c(=O)c12` gave a TGI of over 100 µM. For `C=C1C(=O)O[C@H]2[C@H]1CC/C(COC(=O)NCCCCNC(=O)OC/C1=C/CC[C@@]3(C)O[C@H]3[C@H]3OC(=O)C(=C)[C@@H]3CC1)=C\CC[C@@]1(C)O[C@@H]21`, the GI50 was 3.69 µM and the TGI was 13.5 µM. `COc1ccc(-c2nc3ccccn3c2/C=C/C(=O)c2cc(OC)c(OC)c(OC)c2)cc1OC` gave a GI50 of 1.71 µM and a TGI of over 100 µM. `O=C(N/N=C/c1cc(Br)ccc1O)N/N=C/c1cc(Br)ccc1O` showed a TGI of over 100 µM. Work on `CCCN(CCC)C(=O)c1c([N+](=O)[O-])cc(C(F)(F)F)cc1[N+](=O)[O-]` yielded a TGI of over 100 µM. For `COc1cc2c3c(n(CCCN)c(=O)c2cc1OC)-c1ccc(C#N)cc1C3=O`, the GI50 was 19 µM and the TGI was 41.9 µM. Molecule `COc1cc2[nH]c3c(c2cc1OC)CCN[C@]31CC[C@]2(CC3c4c(cc(OC)c(O)c42)CCN3C)C[C@H]1OC` (some centres undefined) has a TGI of over 100 µM. Molecule `O=C1c2ccccc2C(=O)C1(O)c1c[nH]c2ccccc12` has a TGI of over 100 µM. For `c1ccc(C2N3CCCCC3[C@@H]3c4[nH]c5ccccc5c4CCN23)nc1` (some centres undefined), the TGI was over 100 µM. Work on `O=C(Nc1cc(Cl)c(Cl)cc1Cl)C(=O)C1C(=O)NC(=S)NC1=O` yielded a TGI of over 100 µM. `Nc1ccccc1/C(O)=C1/CCOC1=O` showed a TGI of over 100 µM. Work on `[N-]=[N+]=C1C(=O)NN=C1c1ccccc1` yielded a TGI of over 100 µM. Molecule `Cc1cc(NC(=S)SCc2ccc(F)cc2)c([N+](=O)[O-])cc1C` has a TGI of 91.3 µM. Molecule `CC12OC(C(=O)C13CC3)C1C(=O)c3ccc4c(ccc5ccccc54)c3C(=O)C12` (centres undefined) has a GI50 of 51.3 µM and a TGI of over 100 µM. `Cc1cc2ncnn2cc1Nc1ncc2c(n1)n(C1CCOCC1)c(=O)n2C` was tested, and the GI50 was 10.8 µM and the TGI was over 100 µM. In the case of `COc1ccc(C(=O)c2cc(C)c(OC)c(C)c2)c(OC)c1O`, the GI50 is reported as 0.238 µM and the TGI is reported as over 100 µM. In the case of `CN(Cc1ccccc1)C(=O)c1ccccc1C(=O)O`, the TGI is reported as over 100 µM. With `COc1cc(Cc2nccc3cc(OC)c(OC)cc23)c(C(C)=O)cc1OC` the TGI was 295 µM.

What follows are molecules tested on K-562 leukemia (assay: NCI tumour cell line growth inhibition, 48 h).
In the case of `CC1(C)C(=O)/C(=C\c2cccnc2)C[C@]2(C)[C@H]3CC[C@@H]4[C@H]5[C@H](C(=O)/C=C/c6cccnc6)CC[C@]5(C(=O)O)CC[C@@]4(C)[C@]3(C)CC[C@@H]12`, the GI50 is reported as 2.05 µM and the TGI is reported as 20.5 µM. `COc1cc2ncnc(-n3ncc4cc(NC(=O)Nc5ccccc5)ccc43)c2cc1OC` gave a GI50 of 2.86 µM and a TGI of 15.5 µM. With `Cn1cc(C2(C)CC(C)(C)c3c2n(C)c2ccccc32)c2ccccc21` (centres undefined) the TGI was over 100 µM. For `COc1ccc(C(=O)c2cc(OC)c(OC)c(OC)c2)cc1/C=C/C(=O)c1ccc(F)cc1`, the GI50 was 2.34 µM and the TGI was over 100 µM. Work on `COC(=O)C(Cc1nc2ccccc2[nH]c1=O)C(NO)C(=O)Nc1c(Cl)cc([N+](=O)[O-])cc1Cl` (centres undefined) yielded a TGI of over 100 µM. `COC(=O)C(CC(=O)Nc1ccc(C)cc1)C(=O)C(=O)Nc1c(C(C)C)cccc1C(C)C` (centres undefined) was tested, and the TGI was over 100 µM. `COc1ccc(C2=C(Cl)c3cc(OC)c(OC)cc3C2Cl)cc1` (centres undefined) showed a TGI of over 53.1 µM.
